Measurements: paper PMC8258697 (The Journal of Biological Chemistry, 2021)

Tests used:
[1] = molecular target: T1, RXRα homodimer (Homo sapiens, UniProt P19793); experiment: RXRα homodimer formation HTRF assay, sGFP-RXRα LBD titrated against biotinylated RXRα LBD (wildtype); assay type: binding; settings: 10 μM ligand compared with no ligand
T1 construct: His10-tag with TEV site (N, cleaved yes); made in house; host or cells: E. coli T7 express (co-expressed with GroEL/ES)
T1 sequence (P19793 226-462) 1: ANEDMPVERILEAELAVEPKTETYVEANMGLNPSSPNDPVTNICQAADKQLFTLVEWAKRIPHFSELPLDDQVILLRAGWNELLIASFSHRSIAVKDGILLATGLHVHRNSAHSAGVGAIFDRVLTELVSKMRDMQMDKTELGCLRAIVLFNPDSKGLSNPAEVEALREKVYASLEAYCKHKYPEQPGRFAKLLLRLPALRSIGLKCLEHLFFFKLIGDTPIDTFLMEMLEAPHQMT
T1 sequence (P19793 226-462) 2: T1 sequence (P19793 226-462) 1

[2] = molecular target: T2, RXRα total mutant LBD (Homo sapiens, UniProt P19793, E453R/F450Y/K284E/V280T/V298T); experiment: Isothermal titration calorimetry, RXRα total mutant LBD; assay type: binding; settings: 25°C
T2 construct: MBP-Asn10-His8-TEV site (N, cleaved yes); made in house; host or cells: E. coli T7 express (co-expressed with GroEL/ES)
T2 sequence (P19793 223-462 V280T/K284E/V298T/F450Y/E453R): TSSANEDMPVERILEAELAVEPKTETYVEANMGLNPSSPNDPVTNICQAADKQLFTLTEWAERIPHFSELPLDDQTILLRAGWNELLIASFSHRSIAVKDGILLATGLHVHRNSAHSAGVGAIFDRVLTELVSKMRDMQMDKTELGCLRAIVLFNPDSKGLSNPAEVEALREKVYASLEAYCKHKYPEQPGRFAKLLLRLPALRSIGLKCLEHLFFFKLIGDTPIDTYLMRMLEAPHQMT
Procedure: SI method 1: LBD pulldown
In order to verify proper dimer formation capability of the majority of the protein preparation a pulldown experiment was performed. Therefore, small centrifugal filter columns (nylon membrane with […] pore size; VWR) were loaded with 20 µl of Pierce® high capacity streptavidin agarose beads (Thermo Scientific) equilibrated in HTRF buffer [25 mM HEPES pH 7.5, 150 mM KF, 10% (w/v) glycerol, 5 mM DTT (fresh)], then 20 µl of a mixture of biotin coupled RXRα LBD (4 µg) and the respective PPAR LBD (1.4 µg) was applied. After incubation for 10 min at room temperature followed by centrifugation for 2 min and 900 x g the input mixture as well as the flowthrough was analyzed via SDS PAGE. Gels were scanned using an Li-Cor Odyssey imager (LI-COR® Biosciences GmbH, Germany). Missing bands in comparison to the input control were interpreted in two different ways. […]
The heats of dilution resulting from titrating one of the RXRα LBD proteins into the cell containing only buffer were recorded separately and subtracted from the raw ITC data obtained with compound. Data were analyzed using the NanoAnalyze software package (version 3.7.5). […] Free energy change (ΔG) was calculated using the equation […]
and from there the entropy (ΔS) was calculated from […]
µM SR11237. […] The heats of dilution resulting from titrating of protein into buffer were recorded separately and subtracted. […]

[3] = molecular target: T3, PPARγ LBD (Homo sapiens, UniProt P37231); experiment: Two-dimensional titration of SR11237 and unlabeled mutant RXRα LBD: CBP-1 recruitment by sGFP-PPARγ LBD (HTRF); assay type: biochemical; settings: combined addition of SR11237 and RXRα at concentrations equal to PPARγ (100 nM) and higher
T3 construct: MBP-Asn10-His8-TEV site (N, cleaved yes); made in house; host or cells: E. coli T7 express (co-expressed with GroEL/ES)
T3 sequence (P37231 1-505): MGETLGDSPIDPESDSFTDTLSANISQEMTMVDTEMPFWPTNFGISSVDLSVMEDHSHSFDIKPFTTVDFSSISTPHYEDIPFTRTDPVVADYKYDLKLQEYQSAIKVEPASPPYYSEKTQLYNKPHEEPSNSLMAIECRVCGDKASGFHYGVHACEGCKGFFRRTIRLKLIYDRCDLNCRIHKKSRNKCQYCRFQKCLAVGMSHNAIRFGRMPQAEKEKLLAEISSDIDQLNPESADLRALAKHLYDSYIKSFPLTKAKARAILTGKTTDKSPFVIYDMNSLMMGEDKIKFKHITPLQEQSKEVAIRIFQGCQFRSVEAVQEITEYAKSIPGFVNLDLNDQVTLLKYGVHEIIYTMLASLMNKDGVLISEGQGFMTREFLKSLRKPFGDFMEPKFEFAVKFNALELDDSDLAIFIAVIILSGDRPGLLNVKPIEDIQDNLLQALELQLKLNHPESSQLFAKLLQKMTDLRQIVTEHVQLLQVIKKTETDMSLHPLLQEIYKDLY

[4] = molecular target: T4, Gal4-RXRα wildtype (Homo sapiens, UniProt P19793); experiment: Gal4-RXRα wildtype / VP16-SRC1-2 hybrid reporter gene assay in HEK293T cells; settings: Gal4-RXRα with VP16-SRC1
T4 sequence (P19793 225-462): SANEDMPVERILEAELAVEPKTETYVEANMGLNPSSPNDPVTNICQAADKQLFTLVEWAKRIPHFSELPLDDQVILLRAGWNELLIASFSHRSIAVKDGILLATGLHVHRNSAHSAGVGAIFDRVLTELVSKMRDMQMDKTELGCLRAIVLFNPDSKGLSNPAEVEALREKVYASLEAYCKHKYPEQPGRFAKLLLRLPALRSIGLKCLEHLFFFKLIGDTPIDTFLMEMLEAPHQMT
T4 sequence (Q15788 676-701 C676S partner): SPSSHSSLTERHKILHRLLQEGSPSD

`CC1(C)CCC(C)(C)c2cc(C3(c4ccc(C(=O)O)cc4)OCCO3)ccc21` [SR11237] was tested, and the “effect on RXRα homodimer formation” value [1] was “significantly destabilized the homodimer”, the “binding affinity (ITC)” value [2] was “comparable affinity” and the “CBP-1 recruitment relative to full activation of monomeric PPARγ with rosiglitazone” value [3] was “up to 26%”. For the same compound, the “transactivation of reporter gene expression” value [4] was “substantial increase in transactivation”.
